Legend:
[1] = Competitive metal blockade with bismuth subnitrate: renal ^213Bi and ^221Fr activity after ^225Ac labeled HuM195 injection; assay type: in vivo, mice
Procedure: (§1) The mice were anesthetized and then injected intravenously in the retro-orbital venous plexus with 0.5 μCi of either ^225Ac labeled HuM195 for chelation, diuresis and competitive metal blockade experiments or of ^225Ac labeled SJ25C1 for tumor burden experiments. The injected volume was 100 μl. In order to detect adequate numbers of disintegrations in tissues by use of the gamma-counter, the injected doses of ^225Ac nanogenerator, i.e., ˜30 μCi/kg, are much higher than the doses for human clinical trials with these adjuvants.
Mice (5 per group) were injected i.p. with 200 μl of 1% bismuth subnitrate (BSN; Sigma, St. Louis, Mo.) suspension (100 mg/kg) or an equal volume of saline (controls) 4 hours before ^225Ac nanogenerator injection. These animals were sacrificed at 6 hours post-injection with the ^225Ac nanogenerator. Alternatively, mice were injected i.p. with 200 μl of 1% BSN suspension, 4 hours before and 8 and 20 hours after ^225Ac nanogenerator injection (n=5) or an equal volume of saline (n=5). These animals were sacrificed 24 hours after ^225Ac nanogenerator injection. The mean % ID/g of ^225Ac, ^221Fr and ^213Bi in blood and kidneys at sacrifice-time was calculated for each experimental group.

[2] = Diuretic therapy, alone or combined with DMPS: renal ^221Fr and ^213Bi activity after ^225Ac labeled HuM195 injection; assay type: in vivo, mice; details: diuretic alone i.p.; 24 hours post-injection
Procedure: as §1
Mice were randomized to furosemide treatment, chlorthiazide (CTZ) treatment or no treatment(control)groups (5 animals per group). Furosemide and CTZ were administered intraperitoneally (i.p.). The loading doses of furosemide and CTZ were 250 mg/kg and 750 mg/kg respectively, administered one hour before ^225Ac nanogeneratorinjection. The maintenance doses were 100 mg/kg and 300 mg/kg, respectively, administered 12 hours and 24 hours after the loading dose. The controls were injected with an equal volume of saline (vehicle).
Alternatively, mice received DMPS (1.2 mg/ml in drinking water) and either furosemide or CTZ i.p using the same dose schedule as above. The controls received regular drinking water and were injected with an equal volume of saline. The animals were sacrificed at 24 hours post-injection with the labeled antibody and the mean activity (% ID/g) of ^225Ac, ^221Fr and ^213Bi in blood and kidneys was calculated for each experimental group, as described above.

[3] = In vivo biodistribution of [Ac]Hum195 at 24 hours in DMPS-treated and untreated monkeys; set-up: species or system cynomolgus monkeys; details: one treated versus one untreated monkey, DMPS in water 24 hours plus one i.v. dose 90 min before sacrifice
Procedure: Two cynomolgus monkeys weighing about 7 kg were injected with 25 μCi of Ac-225 nanogenerators on HuM195 antibodies. One monkey received water and the other received DMPS in water for 24 hours and one dose of DMPS intravenously 90 min before sacrifice. At 24 hours the two monkeys were sacrificed and the kidneys examined for Bi-213 daughters. A 70% reduction in Bi-213 in the kidneys of the treated monkey was found (FIG. 7).

[4] = Free metal scavenging with DMPS or DMSA: tissue ^213Bi and ^221Fr activity after ^225Ac labeled HuM195 injection; assay type: in vivo, mice; details: for renal ^213Bi activity: chelator in drinking water, mean (SE); for renal ^221Fr activity versus untreated controls: at either 6 hours or 72 hours post-injection
Procedure: as §1
Animals received either 2,3-dimercapto-1-propanesulfonic acid (DMPS; Sigma, St. Louis, Mo.) or meso-2,3-dimercaptosuccinic acid (DMSA; Sigma, St. Louis, Mo.) in drinking water (1.2 mg/ml and 1.5 mg/ml, respectively), starting one day before injection with ^225Ac nanogenerator and continued until the animals were sacrificed. The control animals received regular drinking water. Animals (n=5 per group) were sacrificed at 6 and 72 hours post-injection by carbon-dioxide asphyxiation.
Samples of blood taken by cardiac puncture, of kidneys, of liver and of small intestine were removed. The organs were washed in distilled water, blotted dry on gauze, weighed, and the activity of ^221Fr (185-250 keV window) and ^213Bi (360-480 keV window) was measured using a gamma counter (COBRA II, Packard Instrument Company, Meriden, Conn.). Samples of the injectate (100 μl) were used as decay correction standards. Adjustment was made for the small percentage of bismuth activity that counted in the francium activity window. Percentage injected dose of ^225Ac, ^221Fr and ^213Bi per gram of tissue weight (% ID/g) was calculated for each animal at the time of sacrifice, using the equation (78):
A2(0)=[A2−A2(eq)·(e^−λ2t−e^−λ1t)]·e^λ2t
where λ1 and λ2 are the decay constants of Ac and Bi, respectively. The mean % ID/g was determined for each experimental group.

[5] = Tumor burden experiment: ^213Bi activity in kidneys and femurs after ^225Ac labeled SJ25C1, disseminated human Daudi lymphoma; assay type: in vivo, SCID mice
Procedure: Disseminated human Daudi lymphoma (84) treated with ^225Ac labeled anti-CD19, was used as the model system. SCID mice, 10-12 weeks old, were randomized to “low tumor burden” or 7 days growth of tumor, “high tumor burden” or 30 days growth of tumor or “high tumor burden+DMPS” group or 30 days growth of tumor and treated with 1.2 mg/ml DMPS in drinking water, starting one day before injection with ^225Ac nanogenerator. All mice were injected intravenously with 5×10^6 Daudi lymphoma cells in 0.1 ml phosphate buffered saline (PBS). The “low burden” animals were injected with the tumor cells 23 days after the “high burden” ones. The animals were checked daily for the onset of hind-leg paralysis. 30 days after injection of tumor cells in the “high burden” animals and 7 days after injection for the “low burden” group, all animals were injected retro-orbitally with 0.5 μCi of ^225Ac labeled SJ25C1 in 100 μl.
The animals (5 per group) were sacrificed at 24 hours post-injection and the mean ^225Ac, ^221Fr and ^213Bi activity (% ID/g) in blood, femurs and kidneys was calculated for each experimental group. The % of human-CD20 positive cells in the femoral bone marrow was estimated in one representative animal from the “high and low burden” groups by flow cytometric staining with phycoerythrin (PE)-conjugated anti-human CD20 (BD, San Jose, Calif.) and compared to that of a non tumor-bearing mouse of the same strain.

[6] = cited from earlier work
CD33 antigen = CD33 antigen (Homo sapiens, UniProt P20138); details: on the order of; cited from earlier work
CD33 antigen, sequence (P20138 18-364): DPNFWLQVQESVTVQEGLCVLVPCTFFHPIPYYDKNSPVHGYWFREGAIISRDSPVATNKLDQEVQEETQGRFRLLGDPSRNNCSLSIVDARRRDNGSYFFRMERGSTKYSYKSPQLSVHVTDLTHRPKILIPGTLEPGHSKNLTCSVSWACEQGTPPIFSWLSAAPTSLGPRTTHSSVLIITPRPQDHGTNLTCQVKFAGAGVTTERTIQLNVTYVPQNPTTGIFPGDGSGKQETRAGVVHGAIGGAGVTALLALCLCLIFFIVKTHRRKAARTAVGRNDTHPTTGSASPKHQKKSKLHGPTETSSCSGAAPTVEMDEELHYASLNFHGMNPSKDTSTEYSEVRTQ

## O=[N+]([O-])[O-].O=[N+]([O-])[O-].O=[N+]([O-])[O-].O=[N+]([O-])[O-].[Bi+3].[Bi+3].[Bi+3].[Bi+3].[Bi+3].[O-2].[OH-].[OH-].[OH-].[OH-].[OH-].[OH-].[OH-].[OH-].[OH-] [BSN, bismuth subnitrate]
[1]; 6 hours post-injection, BSN 100 mg/kg i.p. 4 hours before
  renal ^213Bi activity: 46.1±1.4 % ID/g
[1]; 24 hours post-injection, BSN i.p. 4 hours before and 8 and 20 hours after
  renal ^213Bi activity: 48.2±0.6 % ID/g
[1]; at either time-point (6 hours, 24 hours)
  renal ^221Fr activity: unaltered

## NS(=O)(=O)c1cc2c(cc1Cl)N=CNS2(=O)=O [CTZ, chlorthiazide]
[2]
  24 hour renal ^213Bi activity: 18.6±1.6 % ID/g
  24 hour renal ^221Fr activity: 9.7±0.4 % ID/g

## O=S(=O)(O)CC(S)CS (stereo not shown) [DMPS, 2,3-dimercapto-1-propanesulfonic acid]
[3]
  reduction in Bi-213 in the kidneys: 70%
[4]; 6 hours post-injection
  mean blood ^213Bi activity: 9.2±0.5 % ID/g
  renal ^213Bi activity: 38.6±5.5 % ID/g
[4]; 72 hours post-injection
  mean blood ^213Bi activity: 5.5±0.1 % ID/g
  renal ^213Bi activity: 21.7±2.1 % ID/g
[4]
  renal ^221Fr activity versus untreated controls: not significantly different
[4]; comparison between chelators
  relative effectiveness in reducing the renal ^213Bi activity: significantly more effective than DMSA
[5]; DMPS treated animals bearing the target tumor
  kidney to femur activity ratio for ^213Bi: significantly lower
[5]; high tumor burden + DMPS 1.2 mg/ml in drinking water, 24 hours post-injection
  renal ^213Bi activity: 16.7±2.7 % ID/g
[5]; high tumor burden + DMPS, 24 hours post-injection
  femur ^213Bi activity: 4.8±0.6 % ID/g
[6]
  extent of non-protein sulfhydryl formation in human plasma: 37%

## O=C(O)[C@@H](S)[C@@H](S)C(=O)O [DMSA, meso-2,3-dimercaptosuccinic acid]
[4]; 6 hours post-injection
  mean blood ^213Bi activity: 5.8±0.5 % ID/g
  renal ^213Bi activity: 66.0±1.9 % ID/g
[4]; 72 hours post-injection
  mean blood ^213Bi activity: 4.8±0.6 % ID/g
  renal ^213Bi activity: 41.4±7.3 % ID/g
[4]
  renal ^221Fr activity versus untreated controls: not significantly different
[6]
  extent of non-protein sulfhydryl formation in human plasma: 8%

## NS(=O)(=O)c1cc(C(=O)O)c(NCc2ccco2)cc1Cl [furosemide]
[2]
  24 hour renal ^213Bi activity: 18.3±0.6 % ID/g
  24 hour renal ^221Fr activity: 11.8±0.4 % ID/g

## HuM195: humanized anti-CD33 IgG1 monoclonal antibody
CD33 antigen
  affinity: 10^−9 to 10^−10 M

Source: patent US20040191169A1, “Methods of protection from toxicity of alpha emitting elements during radioimmunotherapy” (priority 2003, published 2004)
